Assay results reported in publication PMC12631831, “Painting Peptides With Antimicrobial Potency Through Deep Reinforcement Learning” (Advanced Science, 2025).
Like-named read-outs stand apart in the source and are kept apart here. Ends that are not written are not given here.

Assays:
B.subtilis ATCC6633 = tested on: B.subtilis ATCC6633
Experimental: (§1) Four standard bacteria used for the MIC test were Escherichia coli ATCC25922, Pseudomonas aeruginosa ATCC9027, Staphylococcus aureus ATCC6538, and Bacillus subtilis ATCC6633. The testing procedures followed the Hancock methods.^[ [67] ^] The peptides were diluted in sterilized PBS to 512 µM as storage solutions. Then twofold gradient dilution was performed to make different concentrations (128, 64, 32, 16, 8, 4, 2, 1, 0.5, 0.25, and 0.125 µM) of AMPs. Each bacteria was incubated in LB broth at 37 °C until its absorbance at 625 nm reached 0.08–0.10, then diluted 10,000 times and added into a sterile 96‐well polypropylene plate (Grenier, #655201). A co‐incubation system included 100 µL peptide solution and 100 µL bacterial suspension.

E.coli ATCC25922 = settings: ATCC25922, 18 h
Experimental: as §1

P.aeruginosa ATCC9027 = settings: ATCC9027, 18 h
Experimental: as §1

S.aureus ATCC6538 = settings: ATCC6538, 18 h
Experimental: as §1

human erythrocytes = settings: cited from earlier work
tumor cells = settings: ref DRACP; cited from earlier work
rat erythrocytes = experiment: Hemolysis assay; settings: rat RBC 10% in PBS, 37 °C, 1 min, 1-128 µM, absorbance 450 nm, triplicate, fitted with GraphPad Prism 8
Experimental: In vitro hemolysis and cytotoxicity were measured by WuXi AppTec Co., ltd. The rat blood was collected and mixed in PBS, then centrifuged at 500 g for 5 mins to make the red blood cell solution (RBC, 10%). Two‐fold gradient dilution was performed to obtain different concentrations (128, 64, 32, 16, 8, 4, 2, and 1 µM) of AMP solutions. Then AMP solutions were added into 100 µL RBC to make the test solution and incubated at 37 °C for 1 min. The assay solution was centrifuged at 2500 g for 6 mins. After centrifugation, the 75 µL supernatant was placed into a 96‐well plate. PBS was used as the vehicle control and 0.1% Triton X‐100 was the positive control. The absorbance of the supernatant in each well was detected at 450 nm using EnVison (PerkinElmer) and the percentage of hemolysis was calculated as Equation (15). The HC25 value was fitted using GraphPad Prism 8. All tests were performed in triplicate. (15) Hemolysis%=AbsAMP−AbsPBS/AbsTritonX−100−AbsPBS×100

HEK293T cells = experiment: Cytotoxicity assay (CellTiter-Glo); format: cell-based, human; settings: 72 h, 1-128 µM, triplicate
Experimental: HEK293T cells were cultured in DMEM supplemented with 10% FBS and incubated at 37 °C with 5% CO2. After planting the cells into a 96‐well plate and incubated overnight, AMP solutions were added. The gradient dilution of AMPs followed the same setting as mentioned in the hemolysis assay. Staurosporine (STS) was used as a positive control and PBS as vehicle control. STS was diluted to 60, 12, 2.4, 0.48, 0.1, 0.02, 0.0038, and 0.0008 µM. After incubation for 72 h, the CellTiter‐Glo®Luminescent assay was performed to evaluate the cell viability. After equilibration to room temperature, the 96‐well plate containing treated cells was loaded with 100 µL CellTiter Glo (CTG, Promega) reagent each well. The plate was incubated for 30 mins, then detected by the EnVision system at a […]. Data were fitted and analyzed with GraphPad Prism 8. All tests were performed in triplicate.

rabbit erythrocytes = settings: ref DBAASP; cited from earlier work

| Sequence | MIC B.subtilis ATCC6633 (B.subtilis ATCC6633; ATCC6633, 18 h) [µM] | MIC E.coli ATCC25922 (E.coli ATCC25922) [µM] | MIC P.aeruginosa ATCC9027 (P.aeruginosa ATCC9027) [µM] | MIC S.aureus ATCC6538 (S.aureus ATCC6538) [µM] | also measured |
| --- | --- | --- | --- | --- | --- |
| AFHHIFRGIVHVGKTIHRLVTG [Piscidin 1 [F1A], reference compound] | – | – | – | – | MIC B.subtilis (B.subtilis ATCC6633; ATCC6633, 18 h): 4 µM; MIC E.coli (E.coli ATCC25922): 16 µM; MIC P.aeruginosa (P.aeruginosa ATCC9027): > 128 µM; MIC S.aureus (S.aureus ATCC6538): 4 µM; Concentration for 100% hemolysis (human erythrocytes; ref DBAASP): 100 µM |
| DGWTMVKARYIKRFMRGLRGFHIKAA [2-1] | 8 | 8 | > 128 | 16 | – |
| FFHHIFRAIVHVGKTIHRLVTG [Piscidin 1 [G8A], reference compound] | – | – | – | – | MIC B.subtilis (B.subtilis ATCC6633; ATCC6633, 18 h): 4 µM; MIC E.coli (E.coli ATCC25922): 16 µM; MIC P.aeruginosa (P.aeruginosa ATCC9027): > 128 µM; MIC S.aureus (S.aureus ATCC6538): 4 µM; HC50 (human erythrocytes; ref DBAASP): 4 µM |
| FFHHIFRKIHHVFKKIHRLFHH [A09] | 4 | 64 | > 128 | 8 | – |
| GIKDWIKGAAKTLIKTVASHIANQ [Ascaphin-5, reference compound] | – | – | – | – | MIC B.subtilis (B.subtilis ATCC6633; initial sequences of A01-A10, same conditions as A01-A10): 16 µM; MIC E.coli (E.coli ATCC25922): 16 µM; MIC P.aeruginosa (P.aeruginosa ATCC9027): 128 µM; MIC S.aureus (S.aureus ATCC6538): 4 µM; HC50 (human erythrocytes; ref DRAMP): > 200 µM |
| GIKKWIKGAIKKLIKKVAKWIWKQ [A07] | 0.5 | 8 | 16 | 2 | – |
| GIKKWIKGWAKKLIKKVAKKIAKQ [A05] | 0.25 | 0.5 | 4 | 1 | – |
| GILFLKRLRILGIGKLLLLKR [S05] | 64 | > 128 | > 128 | 128 | – |
| GRKKRRQRRRGGWMWVTNLRTD [TAT-Ras-GAP317-326] | – | – | – | – | Hemolysis and cytotoxicity (tumor cells): Enhances genotoxin-induced cytotoxicity in tumor cells |
| GRKKRRRRRRGGWWWKLGLRWF [A08] | 64 | > 128 | > 128 | 64 | – |
| IFHHIFRGIHHIFKGIHRLWKR [A02] | 4 | 64 | > 128 | 4 | – |
| IKRRIRRRPIRRRQRR [S06] | > 128 | > 128 | > 128 | 128 | – |
| KKQVKWLLKVWKKVGIKLGAKLPVWK [S01] | 2 | 16 | 64 | 2 | – |
| KLKIKFKFHLKLFGLF [S09] | > 128 | > 128 | > 128 | 128 | – |
| KLYKYKYRKVYKKQRRR [R09] | > 128 | > 128 | > 128 | 64 | – |
| KQQRKRGRVRKALLGKVIGFGGLKLKG [S08] | – | – | – | – | HC25 (concentration that causes 25% hemolysis) (rat erythrocytes): > 128 µM; CC50 (concentration that reduces viability by 50%) (HEK293T cells): > 128 µM |
| KWFFKWFRKHFLKWMRQYFHK [R02] | 4 | 128 | 64 | 8 | – |
| KWWKRRRWRWRWKKLWK [A04] | – | – | – | – | HC25 (concentration that causes 25% hemolysis) (rat erythrocytes): > 128 µM; CC50 (concentration that reduces viability by 50%) (HEK293T cells): 49.63 µM |
| LWRWKLLGRISVIIGKIKAALRLWF [R06] | > 128 | > 128 | > 128 | > 128 | – |

| Sequence | MIC B.subtilis ATCC6633 (B.subtilis ATCC6633; ATCC6633, 18 h) [µM] | MIC E.coli ATCC25922 (E.coli ATCC25922) [µM] | MIC P.aeruginosa ATCC9027 (P.aeruginosa ATCC9027) [µM] | MIC S.aureus ATCC6538 (S.aureus ATCC6538) [µM] | also measured |
| --- | --- | --- | --- | --- | --- |
| QPKKPYKPIYKKVRGVLIPFKRV [R10] | > 128 | > 128 | > 128 | > 128 | – |
| RGWFKVKMRYIKRFMRGLRGFHIKAA [2-6] | 2 | 4 | 16 | 1 | – |
| RGWFKVKRRYIKRFMRGLRGFHIKAA [R04] | 1 | 2 | 8 | 0.5 | CC50 (concentration that reduces viability by 50%) (HEK293T cells): 23.59 µM |
| RGWTMVKARYIKRFMRGLRGFHIKAA [2-2] | 2 | 4 | 128 | 2 | – |
| RKRVVWGKIFFRRR [S04] | 64 | 64 | – | – | – |
| RLKIHLYIKHYRRPKIVIRLKIK [R01] | > 128 | > 128 | > 128 | 128 | – |
| RRLRRLRILLFLKRVLRR [S02] | – | – | – | – | HC25 (concentration that causes 25% hemolysis) (rat erythrocytes): > 128 µM; CC50 (concentration that reduces viability by 50%) (HEK293T cells): > 128 µM |
| RWRKWRRWWWRKKKLGF [A06] | – | – | – | – | HC25 (concentration that causes 25% hemolysis) (rat erythrocytes): > 128 µM; CC50 (concentration that reduces viability by 50%) (HEK293T cells): 71.09 µM |
| RWWRGWWRRKLKKLRKKLKKKLKGM [A01] | – | – | – | – | HC25 (concentration that causes 25% hemolysis) (rat erythrocytes): 14.66 µM; CC50 (concentration that reduces viability by 50%) (HEK293T cells): 11.62 µM |
| SMWSGMWRRKLKKLRNALKKKLKGE [Latarcin-1] | – | – | – | – | Concentration for 20% hemolysis (rabbit erythrocytes): 80 µM |
| VKKRLLFRKPLLKLFLLFGRRLKA [S07] | – | – | – | – | HC25 (concentration that causes 25% hemolysis) (rat erythrocytes): > 128 µM; CC50 (concentration that reduces viability by 50%) (HEK293T cells): 22.12 µM |
| WIPKRFGIVIKRFYYRPFYPLFQ [R07] | > 128 | > 128 | > 128 | 128 | – |
| WKKWRWWWRWKKLWW [A10] | – | – | – | – | HC25 (concentration that causes 25% hemolysis) (rat erythrocytes): 30.13 µM; CC50 (concentration that reduces viability by 50%) (HEK293T cells): 51.11 µM |
| WRWKGRWRRKLKKLRWKLKKKLKLG [A03] | – | – | – | – | HC25 (concentration that causes 25% hemolysis) (rat erythrocytes): > 128 µM; CC50 (concentration that reduces viability by 50%) (HEK293T cells): 21.67 µM |
| WVQKKVIKLILKGLFALKLLG [S03] | > 128 | > 128 | > 128 | 128 | HC25 (concentration that causes 25% hemolysis) (rat erythrocytes): > 128 µM; CC50 (concentration that reduces viability by 50%) (HEK293T cells): > 64 µM |
| WWWHLRIWLKKKHQKAQWKKFGWFMKQHH [R05] | 8 | > 128 | 128 | 2 | – |
| YKGFWRKIIYLIMMHAMKFMVWFLHLPKQ [R08] | > 128 | > 128 | > 128 | > 128 | – |
| YWRRWYIWRWRRWRWLRYI [R03] | 128 | > 128 | > 128 | 128 | – |
